Measurements published in patent US12410174B1, “Small molecular inhibitors of sting signaling compositions and methods of use” (TYERELL IMMUNOTHERAPEUTICS INC, priority 2020, dated 2025).
“Also recorded” adds a separate entry of the source.

Tested on: STING signaling
Test: Confocal analysis of STING trafficking and IRF3 translocation in hTERT cells
Assay type: cell-based, human
Conditions: 6 hours after ISD transfection
Method: FIG. 2E are photographs showing confocal analysis of STING trafficking using anti-Sting performed at 6 hours after ISD transfection with Y1+220/without 220, Mock is shown (210), ISD treatment only (220) was used as control, treatment same as in FIG. 2A, according to an embodiment of the invention;
Example 10: Immunofluorescence Microscopy: Cells were cultured and treated in their appropriate media on Lab-Tek II chamber slides. Cell were fixed with 4% paraformaldehyde for 15 minutes in at 37° C. and permeabilized with 0.05% Triton X-100 for 5 minutes at room temperature. Immunostaining was performed with rabbit-anti-STING polyclonal, rabbit-anti-IRF3 (Santa Cruz Biotechnology) or rabbit-anti-p65 (Cell Signaling) followed by fluorescence conjugated secondary antibodies (FITC-goat-anti-rabbit) (Invitrogen).

Q: `N#Cc1c(NC(=O)c2ccccc2Cl)n(Cc2ccccc2)c2nc3ccccc3nc12` [Compound Y1, N-{1-benzyl-3-cyano-1H-pyrrolo[2,3-ß]quinoxalin-2-yl}-2-chlorobenzamide] was tested. Which “IRF3 translocation (confocal analysis)” value did it give?
A: The value was “able to prevent”.

Q: What about the “STING trafficking (confocal analysis)” value of the same compound?
A: Its value is “effectively preventing STING trafficking; also recorded: able to prevent”.
